# Source: patent EP0537980A1, “Cyclohexaneacetic acid derivatives as inhibitors of fibrinogen-dependent blood platelet aggregation” (GLAXO GROUP LIMITED, priority 1991, dated 1993)
# Where a name gives a salt, the structure may show the parent alone.
# Test system: human gel filtered platelets (GFP)
# Assay: Inhibition of ADP-induced, fibrinogen-dependent blood platelet aggregation in human gel filtered platelets (GFP)
# Format: cell-based
# Conditions: fibrinogen 0.5mg/ml, compounds incubated 5 minutes at 37°C, ADP 1 x 10⁻⁵M, concentration required to produce 50% inhibition of platelet aggregation, read-out: IC₅₀
# Experimental: Inhibition of blood platelet aggregation by compounds of the invention was determined according to the following procedure. Citrated whole blood (1 part 3.8% trisodium citrate: 9 parts blood) was obtained from human volunteers, free of medication for at least 10 days prior to collection. The blood was incubated with 0.1mM aspirin and 0.05µM prostacyclin and then centrifuged at 1000g for 4 minutes (20°C). The supernatant platelet rich plasma (PRP) was further centrifuged at 1300g for 10 minutes (20°C) to sediment the platelets. The supernatant was discarded and the pellet washed with a physiological salt solution (HEPES 5mM, NaHCO₃ 12mM, NaCl 140mM, KH₂PO₄ 0.74mM, D-Glucose 5.6mM, KCl 2.82mM and BSA 20g/l, pH 7.4) to remove residual plasma. After washing, the pellet was resuspended in physiological salt solution and then applied to a sepharose CL-2B column, pre-equilibrated with physiological salt solution at room temperature. The platelets (GFP) eluted within the void volume and were diluted to approximately 300,000 platelets/µl in buffer. Purified human fibrinogen (Knight L.C. et al, 1981 Thromb. Haemostasis, 46(3), 593-596) was added to a final concentration of 0.5mg/ml together with Ca2+ and Mg2+ at 1mM and 0.5mM respectively. […] The potency of the compounds may be expressed as an IC₅₀ value, defined as the concentration of compound required to produce 50% inhibition of platelet aggregation.
row,Compound,IC50 [nM]
1,"N=C(N)c1ccc(N2CCN(C3CCC(O)(CC(=O)O)CC3)CC2)c(Br)c1 (stereo not drawn) [Example 2, cis-4-[4-[4-(Aminoiminomethyl)-2-bromophenyl]-1-piperazinyl]-1-hydroxycyclohexaneacetic acid, trifluoroacetate salt]",945
2,"N=C(N)c1ncc(N2CCN(C3CCC(O)(CC(=O)O)CC3)CC2)cn1 (stereo not drawn) [Example 3, cis-4-[4-[2-(Aminoiminomethyl)-5-pyrimidinyl]-1-piperazinyl]-1-hydroxycyclohexaneacetic acid, trifluoroacetate salt]",543
3,"N=C(N)c1ccc(C2CCN(C3CCC(O)(CC(=O)O)CC3)CC2)cc1 (stereo not drawn) [Example 4, cis-4-[4-[4-(Aminoiminomethyl)phenyl]-1-piperidinyl]-1-hydroxycyclohexaneacetic acid, trifluoroacetate salt]",13
4,"N=C(N)c1ccc(N2CCN([C@H]3CC[C@@](O)(CC(=O)O)CC3)CC2)cn1 [Example 5, cis-4-[4-[2-(Aminoiminomethyl)-5-pyridinyl]-1-piperazinyl]-1-hydroxycyclohexaneacetic acid, trifluoroacetate salt]",220
5,"N=C(N)c1ccc(N2CCN(C3CCC(O)(CC(=O)O)CC3)CC2)c(-c2ccccc2)c1 (centres unmarked) [Example 6, trifluoroacetate salt]",1550
